{
  "source": "paper PMC11600510",
  "about": "(Journal of Chemical Information and Modeling, 2024)",
  "key": {"[1]": {"target": "T1, Spike RBD/ACE2 (19–615) interaction (Severe acute respiratory syndrome coronavirus 2, UniProt P0DTC2)", "T1 construct": "S protein RBD (aa residues 319–541) of SARS-CoV-2; expressed in transfected cells; host or cells: HEK293T", "experiment": "cell-based", "type": "cell-based, SARS-CoV-2", "settings": "HEK-293T, 48 h, read-out: suppression of Spike RBD/ACE2 (19–615) interaction"}, "[2]": {"system": "SARS-CoV-2", "experiment": "microbe, parasite or virus in culture", "type": "cell-based"}, "[3]": {"system": "SARS-CoV-2", "type": "cell-based"}, "[4]": {"experiment": "Metabolic stability in human liver microsomes", "type": "in vitro ADME", "description": "CKP-25 was studied for its metabolic stability. In particular, the metabolic stability of a compound can be interpreted using several approaches, as it can be ranked in terms of its intrinsic clearance (CLint) and in vitro t1/2 values or based on parent structure loss during metabolic reactions[96],[97] CLin describes the maximum activity of liver (microsomal proteins or hepatocytes) toward a compound not influenced by other physiological determinants, such as hepatic blood flow and drug binding within the blood matrix and in vitro t1/2 expresses the time for 50% disappearance of the compound. Parent structure loss was our option for metabolic stability data interpretation of CKP-25. Parent structure loss is classified as very slow (<5%), slow (5–19%), moderate (20–50%), fast (50–80%) or very fast (>80%). Such categories have been defined according to set criteria, namely, high metabolism (t1/2 value of <30 min), moderate metabolism (30 min < t1/2 value of <60 min) and low metabolism (t1/2 value of >60 min).[98]−[100]\nMetabolic stability was evaluated using pooled human liver microsomes at a 0.5 mg/mL concentration. […] Each test-compound was assessed at a concentration of 1 μM. […] The depletion of test compounds was then profiled, and the residual percentage compared to time zero was determined. The readouts were recorded using a Lionheart FX system from Agilent BioTek (Winooski, VT, USA)."}, "[5]": {"target": "T2, CYP1A2 (Homo sapiens, UniProt P05177)", "T2 construct": "purchased Thermo Fisher Scientific; host or cells: Baculosomes", "T2 sequence (P05177 2-516 limits assumed)": "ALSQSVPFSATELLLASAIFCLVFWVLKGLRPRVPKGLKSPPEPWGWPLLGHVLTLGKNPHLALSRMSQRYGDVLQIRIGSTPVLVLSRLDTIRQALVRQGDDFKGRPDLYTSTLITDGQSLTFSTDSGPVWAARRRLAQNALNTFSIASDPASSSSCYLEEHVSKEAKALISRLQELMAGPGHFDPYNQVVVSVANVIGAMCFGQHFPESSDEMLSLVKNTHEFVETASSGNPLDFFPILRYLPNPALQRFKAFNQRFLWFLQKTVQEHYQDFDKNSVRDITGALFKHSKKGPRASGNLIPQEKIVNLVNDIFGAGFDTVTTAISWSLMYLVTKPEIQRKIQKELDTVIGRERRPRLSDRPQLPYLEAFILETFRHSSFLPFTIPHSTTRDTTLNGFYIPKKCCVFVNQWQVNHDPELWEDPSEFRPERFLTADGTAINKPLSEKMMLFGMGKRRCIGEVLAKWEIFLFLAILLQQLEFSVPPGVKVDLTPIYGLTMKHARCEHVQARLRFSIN", "experiment": "Isozyme-specific CYP450 inhibition", "type": "in vitro ADME", "settings": "recombinant human CYP1A2 with CYP450 reductase (Baculosomes), probe fluorescent substrate (not named)", "description": "(§1) For this, the activity of CYP1A2, CYP2A6, CYP2B6, CYP2C9, CYP2C19, CYP2D6, and CYP3A4 was assessed after the administration of CKP-25 at 1 μM to determine (a) the oxidative (CYP-mediated) metabolic stability profile in question and (b) the enzyme metabolizing isoforms responsible (the test system consists of recombinant human CYP450 and CYP450 reductase; cytochrome b5 may also be present). Herein, no concentration-dependent effects were reported. […] No product inhibition or mechanism-based inactivation of the CYP450 isoenzymes in question was obtained. Test-compounds with poor solubility can show artificially low CYP450 inhibition and thus, chemical entities with potential drug–drug interaction toxicities may be overlooked.\n(§2) Human cytochrome P450 (CYP450) isoenzymes were expressed in Baculosomes obtained from Thermo Fisher Scientific (Waltham, MA, USA). Reagents were handled and prepared following the manufacturer’s guidelines. Compound CKP-25 was evaluated at a concentration of 1 μM according to our established standard operating procedures and protocols as described previously.[127],[128] The enzymatic activity of various CYP450 isoforms (CYP1A2, CYP2A6, CYP2B6, CYP2C9, CYP2C19, CYP2D6, and CYP3A4) was measured, considering the kinetic model for each isoform. The reactions were conducted in triplicate at 20 °C. NADP+ (10 mM in 100 mM potassium phosphate, pH 8.0) was converted to NADPH using a regeneration system containing glucose-6-phosphate (333 mM) and glucose-6-phosphate dehydrogenase (30 U/mL in 100 mM potassium phosphate, pH 8.0). Upon the addition of the fluorescent substrate, signal monitoring was performed immediately (within 2 min) using appropriate excitation and emission wavelengths, recorded by an Agilent BioTek Lionheart FX (Winooski, VT, USA). CYP450 inhibition (%) was calculated based on the reaction rates (fluorescence intensity changes per unit time). In total, n = 60 meaurements per minute were recorded over a 60 min period. [drawing 2] where X, the rate observed in the presence of a test-compound; A, the rate observed in the presence of negative (solvent, DMSO) control."}, "[6]": {"target": "T3, CYP2D6 (Homo sapiens, UniProt P10635)", "T3 construct": "purchased Thermo Fisher Scientific; host or cells: Baculosomes", "T3 sequence (P10635 whole entry)": "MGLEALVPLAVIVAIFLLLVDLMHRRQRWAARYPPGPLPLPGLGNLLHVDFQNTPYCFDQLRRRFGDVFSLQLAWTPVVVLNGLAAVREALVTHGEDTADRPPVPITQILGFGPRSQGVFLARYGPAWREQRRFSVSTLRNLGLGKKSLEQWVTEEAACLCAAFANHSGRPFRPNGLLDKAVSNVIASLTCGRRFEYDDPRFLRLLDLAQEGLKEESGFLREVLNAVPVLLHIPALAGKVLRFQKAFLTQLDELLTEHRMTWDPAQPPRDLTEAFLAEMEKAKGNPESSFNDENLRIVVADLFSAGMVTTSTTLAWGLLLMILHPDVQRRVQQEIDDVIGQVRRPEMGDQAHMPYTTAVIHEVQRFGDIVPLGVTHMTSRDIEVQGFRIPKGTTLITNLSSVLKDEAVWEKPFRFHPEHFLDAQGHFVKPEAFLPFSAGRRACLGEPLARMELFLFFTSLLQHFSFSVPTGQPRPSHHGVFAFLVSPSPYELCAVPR", "experiment": "Isozyme-specific CYP450 inhibition", "type": "in vitro ADME", "settings": "recombinant human CYP2D6 with CYP450 reductase (Baculosomes), probe fluorescent substrate (not named)", "description": "as §1, §2"}, "[7]": {"system": "CYP450 system", "experiment": "Isozyme-specific CYP450 study, overall statement", "type": "in vitro ADME, human", "settings": "1 μM", "description": "For this, the activity of CYP1A2, CYP2A6, CYP2B6, CYP2C9, CYP2C19, CYP2D6, and CYP3A4 was assessed after the administration of CKP-25 at 1 μM to determine (a) the oxidative (CYP-mediated) metabolic stability profile in question and (b) the enzyme metabolizing isoforms responsible (the test system consists of recombinant human CYP450 and CYP450 reductase; cytochrome b5 may also be present). Herein, no concentration-dependent effects were reported. […] No product inhibition or mechanism-based inactivation of the CYP450 isoenzymes in question was obtained. […]\nHuman cytochrome P450 (CYP450) isoenzymes were expressed in Baculosomes obtained from Thermo Fisher Scientific (Waltham, MA, USA). […] Compound CKP-25 was evaluated at a concentration of 1 μM according to our established standard operating procedures and protocols as described previously.[127],[128] The enzymatic activity of various CYP450 isoforms (CYP1A2, CYP2A6, CYP2B6, CYP2C9, CYP2C19, CYP2D6, and CYP3A4) was measured, considering the kinetic model for each isoform. […] Upon the addition of the fluorescent substrate, signal monitoring was performed immediately (within 2 min) using appropriate excitation and emission wavelengths, recorded by an Agilent BioTek Lionheart FX (Winooski, VT, USA). CYP450 inhibition (%) was calculated based on the reaction rates (fluorescence intensity changes per unit time). […]"}},
  "data": [
    {"smiles": "COc1cccc2c1ncn2Cc1ccc2ccccc2c1", "note": "[CKP-25, 4-Methoxy-1-(naphthalen-2-ylmethyl)-1H-benzo[d]imidazole]", "values": [
      {"measurement": "inhibition at 25 µM", "setting": "[1]", "result": 34, "unit": "%"},
      {"measurement": "effect on the cytopathic effect of SARS-CoV-2 (in words)", "setting": "[2]", "result": "consistently reduced the cytopathic effect"},
      {"measurement": "IC50", "setting": "[2]; Severe acute respiratory syndrome coronavirus 2, Vero C1008, 48 h, read-out: IC50, SARS-CoV-2 CPE", "result": 3.5, "unit": "µM"},
      {"measurement": "effect on viral load in the cell culture supernatant (in words)", "setting": "[3]", "result": "reduced the viral load"},
      {"measurement": "substrate depletion (in words)", "setting": "[4]", "result": "slow substrate depletion"},
      {"measurement": "inhibition at 60 min, 1 µM", "setting": "[5]", "result": 0, "unit": "%"},
      {"measurement": "inhibition at 60 min, 1 µM", "setting": "[6]", "result": 1, "unit": "%"},
      {"measurement": "inhibition of the CYP450 system (in words)", "setting": "[7]", "result": "weak inhibitor"},
      {"measurement": "solubility issues in the CYP450 assay", "setting": "[7]", "result": "No solubility issues"}
    ]}
  ]
}
